Experiments:
[1] = Stability test for use in combination with an inorganic powder ultraviolet shielding agent; format: physicochemical; details: sunscreen cream with inorganic powders, ultraviolet absorbent 10.0 wt %, stored at 50° C. for two months, visual
Description: Sunscreen cream was prepared according to the following recipe; it was stored at 50° C. for two months and visually observed for discoloration to investigate the stability when used in combination with an inorganic powder ultraviolet shielding agent.

[2] = External appearance and low temperature storage of lotion and cream samples; format: physicochemical
Description: (§1) (a) lotion and (b) cream were prepared according to the following recipes. For the ultraviolet absorbent, benzilidene malonamide (bis-N,N′-[2-(2-hydroxyethoxy)ethyl]-4-methoxybenzilidene malonamide) of the present invention and, as a Comparison example, a water soluble ultraviolet absorbent sodium 2-hydroxy-4-methoxy-5-sulfoquisonium benzophenone were used.
(§2) The water phase and the alcohol phase were separately prepared and then mixed together.
(§3) Propylene glycol and the ultraviolet absorbent were dissolved in ion-exchanged water and the temperature was raised to 70° C. and maintained. The other ingredients were mixed, heated and melted, and the temperature was maintained at 70° C. (oil phase). The oil phase was added to the water phase and pre-emulsification was conducted; after a homomixer was used to emulsify the mixture homogeneously, the temperature was cooled down to 30° C. while thorough stirring was maintained.

Solubility in water = format: physicochemical
Description: Solubility in water was measured for the benzilidene malonamide of the present invention. For a Comparative example, sodium 2-hydroxy-4-methoxy-5-sulfoquisonium benzophenone was measured in the same manner.

[3] = 405 nm visible light absorbance measurement; format: physicochemical; details: water, optical path length 1 cm
Description: For a Comparative example, sodium 2-hydroxy-4-methoxy-5-sulfoquisonium benzophenone, a conventional water soluble ultraviolet absorbent, was measured in the same manner.

[4] = Photostability test, sunlight exposure; format: physicochemical; details: 80 MJ/m^2
Description: A solution of the ultraviolet absorbent of the present invention was exposed to sunlight for two weeks (sunlight exposure level 80 MJ/m^2) and then the residual ratio and changes in the appearance were investigated and the ultraviolet absorption spectrum was measured (solvent: water, concentration 10 ppm, optical path length 1 cm) by using a spectrophotometer; the ultraviolet absorption spectrum was integrated over a range of 290-400 nm to obtain the area value, which was compared with the value before the sunlight exposure.
Changes in the residual ratio and the area value of the ultraviolet absorption spectrum were evaluated based on the following criteria.
Δ: 70% or more and less than 90% of the value before the sunlight exposure.
X: Less than 70% of the value before the sunlight exposure.

[5] = tested on: degree of sunburn after exposure to direct sunlight; assay: Ultraviolet prevention effect, actual use test on a beach in summer; format: in vivo, human
Description: An actual use test was conducted on a beach in summer. The same amount of sample was applied on the left and right halves of panelists' backs. The degree of sunburn after exposure to direct sunlight was evaluated based on the following criteria. The test was conducted with a group of 10 panelists.
Very effective: No or very little sunburn symptoms were observed.
Effective: A mild degree of sunburn symptoms were observed.
Not effective: A strong degree of sunburn symptoms were observed.
⊚: 80% or more of the subjects report “very effective” or “effective.”
◯: 50% or more and less than 80% of the subjects report “very effective” or “effective.”
∇: 30% or more and less than 50% of the subjects report “very effective” or “effective.”
X: Less than 30% of the subjects report “very effective” or “effective.”
as §1, §2, §3

[6] = tested on: flexor forearm skin of healthy male and female volunteers; assay: Skin irritability test, 24-hour closed patch test; format: in vivo, human; details: ultraviolet absorbent 10 wt %, 20 volunteers
Description: This test was conducted by using the same sample as in Test example 4 (blend ratio of the ultraviolet absorbent was 10 wt %).
A Finn chamber was used to conduct the 24-hour closed patch test on the flexor forearm of healthy male and female volunteers; a group of 20 volunteers were used and the following evaluation criteria were used.
The average score was calculated and the evaluation was done based on the following criteria.
⊚: The average score is 0.
◯: The average score is more than 0 and less than 1.
Δ: The average score is 1 or more and less than 2.
X: The average score is 2 or more.

[7] = Ultraviolet absorption spectrum measurement; format: physicochemical; details: solvent water, concentration 10 ppm, optical path length 1 cm, FIG. 1
Description: An ultraviolet absorption spectrum of the benzilidene malonamide obtained in Example 1 was measured (solvent: water, concentration 10 ppm, optical path length 1 cm) by using a spectrophotometer (V-560 from Jasco Co. Ltd.).

COc1ccc(C=C(C(=O)NCCOCCO)C(=O)NCCOCCO)cc1 [Benzilidene malonamide of formula (1), bis-N,N′-[2-(2-hydroxyethoxy)ethyl]-4-methoxybenzilidene malonamide]
Discoloration [1]: None | External appearance ([2]; (b) Cream, blend ratio 1): White | External appearance ([2]; (b) Cream, blend ratio 5): White | External appearance ([2]; (b) Cream, blend ratio 10): White | Precipitation during low temperature storage ([2]; external preparations of Tables 3 and 4 (lotion and cream)): no precipitation of the ultraviolet absorbent was observed at all | Solubility (room temperature) (Solubility in water): 30 or more wt % | Absorbance ([3]; concentration 10 wt %): 0 | Changes in the area value of the ultraviolet absorption spectrum ([4]; 290-400 nm integrated, after sunlight for two weeks, water, 10 ppm, 1 cm): ⊚ (95% or more of the value before the sunlight exposure.) | Residual ratio ([4]; solution exposed to sunlight for two weeks): ⊚ (95% or more of the value before the sunlight exposure.) | Ultraviolet prevention effect ([5]; (a) Lotion, blend ratio 1, 10 panelists): ⊚ (80% or more of the subjects report “very effective” or “effective.”) | Ultraviolet prevention effect ([5]; (a) Lotion, blend ratio 5, 10 panelists): ⊚ (80% or more of the subjects report “very effective” or “effective.”) | Ultraviolet prevention effect ([5]; (a) Lotion, blend ratio 10, 10 panelists): ⊚ (80% or more of the subjects report “very effective” or “effective.”) | Ultraviolet prevention effect ([5]; (b) Cream, blend ratio 1, 10 panelists): ⊚ (80% or more of the subjects report “very effective” or “effective.”) | Ultraviolet prevention effect ([5]; (b) Cream, blend ratio 5, 10 panelists): ⊚ (80% or more of the subjects report “very effective” or “effective.”) | Ultraviolet prevention effect ([5]; (b) Cream, blend ratio 10, 10 panelists): ⊚ (80% or more of the subjects report “very effective” or “effective.”) | Skin irritability patch test evaluation (average score) ([6]; Cream): ⊚ (The average score is 0.) | Skin irritability patch test evaluation (average score) ([6]; Lotion): ⊚ (The average score is 0.) | Ultraviolet absorption spectrum (absorption capacity) [7]: superior absorption capacity over a wide ultraviolet wavelength region

COc1cc(O)c(C(=O)c2ccccc2)cc1S(=O)(=O)[O-].[Na+] [sodium 2-hydroxy-4-methoxy-5-sulfoxonium benzophenone, reference compound]
Precipitation during low temperature storage ([2]; (a) Lotion, blend ratio 5): **Crystals precipitated during low temperature storage. | External appearance ([2]; (b) Cream, blend ratio 1): Yellow | External appearance ([2]; (b) Cream, blend ratio 5): Yellow** | Precipitation during low temperature storage ([2]; (b) Cream, blend ratio 5): **Crystals precipitated during low temperature storage. | Absorbance ([3]; concentration 0.1 wt %): 0.06 | Absorbance ([3]; concentration 1 wt %): 0.32 | Absorbance ([3]; concentration 6 wt %): 1.99

— patent publication US8003083B2, “Benzylidene malonamide and salt thereof, ultraviolet ray absorbent, and agent for external application to the skin” (Shiseido Company, Ltd., priority 2006, dated 2011)
